Source: patent US20260365670A1, “EGFR INHIBITORS AND USES THEREOF” (DIZAL (JIANGSU) PHARMACEUTICAL CO., LTD., priority 2022, published 2026)
Like-named read-outs stand apart in the source and are kept apart here.

Experiments:
[1] = molecular target: T1, EGFR wild type (Homo sapiens, UniProt P00533); assay: Inhibition of EGFR wild type biochemical enzymatic activity (HTRF); details: EGFR WT, 1 mM ATP, 1 h, room temperature, read-out: IC50 (nM) @WT
T1 construct: purchased Carna Bio
Method in brief: (§1)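 Read-out is the HTRF 665/615 nm ratio (excitation 320 nm), taken as proportional to kinase activity after a 1 h room-temperature reaction with 1 mM ATP and 1 μM biotinylated TK substrate. IC50 values derive from four-parameter logistic fitting.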

[2] = molecular target: T2, EGFR L858R (Homo sapiens, UniProt P00533, L858R); assay: Inhibition of EGFR L858R biochemical enzymatic activity (HTRF); details: 1 mM ATP, 1 h, room temperature, read-out: IC50 (nM) @L858R
T2 construct: purchased Carna Bio
T2 sequence (P00533 25-1210 L858R): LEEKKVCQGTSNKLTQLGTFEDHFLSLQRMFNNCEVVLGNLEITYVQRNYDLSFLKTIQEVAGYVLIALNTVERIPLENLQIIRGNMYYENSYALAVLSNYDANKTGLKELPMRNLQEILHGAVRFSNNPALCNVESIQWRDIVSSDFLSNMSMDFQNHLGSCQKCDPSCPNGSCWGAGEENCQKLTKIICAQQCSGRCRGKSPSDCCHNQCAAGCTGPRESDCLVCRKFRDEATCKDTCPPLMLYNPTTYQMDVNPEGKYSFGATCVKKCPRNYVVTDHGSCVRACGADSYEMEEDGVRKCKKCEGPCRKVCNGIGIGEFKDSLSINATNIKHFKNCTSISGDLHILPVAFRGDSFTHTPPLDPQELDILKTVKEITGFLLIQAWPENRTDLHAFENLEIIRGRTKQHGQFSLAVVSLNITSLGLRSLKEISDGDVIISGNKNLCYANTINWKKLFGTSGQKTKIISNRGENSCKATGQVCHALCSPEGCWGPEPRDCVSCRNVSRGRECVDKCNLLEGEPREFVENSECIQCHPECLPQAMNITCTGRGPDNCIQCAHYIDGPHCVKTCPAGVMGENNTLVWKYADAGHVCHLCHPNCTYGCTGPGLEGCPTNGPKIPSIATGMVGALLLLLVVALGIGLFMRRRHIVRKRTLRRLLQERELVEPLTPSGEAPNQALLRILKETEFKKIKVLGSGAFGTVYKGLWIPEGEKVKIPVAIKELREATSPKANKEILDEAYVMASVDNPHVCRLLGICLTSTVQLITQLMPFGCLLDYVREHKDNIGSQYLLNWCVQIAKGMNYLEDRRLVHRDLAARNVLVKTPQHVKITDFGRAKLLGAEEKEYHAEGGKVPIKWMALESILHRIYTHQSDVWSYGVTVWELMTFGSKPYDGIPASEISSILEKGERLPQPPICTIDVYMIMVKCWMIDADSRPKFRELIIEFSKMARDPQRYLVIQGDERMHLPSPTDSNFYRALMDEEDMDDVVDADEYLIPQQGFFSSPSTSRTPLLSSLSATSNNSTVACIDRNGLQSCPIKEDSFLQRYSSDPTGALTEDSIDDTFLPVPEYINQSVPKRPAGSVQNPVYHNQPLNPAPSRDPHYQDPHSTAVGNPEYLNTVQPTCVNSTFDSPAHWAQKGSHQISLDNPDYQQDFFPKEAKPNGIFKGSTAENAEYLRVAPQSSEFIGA
Method in brief: as §1

[3] = molecular target: T3, EGFR L858R/T790M (Homo sapiens, UniProt P00533, L858R/T790M); assay: Inhibition of EGFR L858R/T790M biochemical enzymatic activity (HTRF); details: EGFR L858R-T790M, 1 mM ATP, 1 h, room temperature, read-out: IC50 (nM) @L858R-T790M
T3 construct: purchased Carna Bio
T3 sequence (P00533 25-1210 T790M/L858R): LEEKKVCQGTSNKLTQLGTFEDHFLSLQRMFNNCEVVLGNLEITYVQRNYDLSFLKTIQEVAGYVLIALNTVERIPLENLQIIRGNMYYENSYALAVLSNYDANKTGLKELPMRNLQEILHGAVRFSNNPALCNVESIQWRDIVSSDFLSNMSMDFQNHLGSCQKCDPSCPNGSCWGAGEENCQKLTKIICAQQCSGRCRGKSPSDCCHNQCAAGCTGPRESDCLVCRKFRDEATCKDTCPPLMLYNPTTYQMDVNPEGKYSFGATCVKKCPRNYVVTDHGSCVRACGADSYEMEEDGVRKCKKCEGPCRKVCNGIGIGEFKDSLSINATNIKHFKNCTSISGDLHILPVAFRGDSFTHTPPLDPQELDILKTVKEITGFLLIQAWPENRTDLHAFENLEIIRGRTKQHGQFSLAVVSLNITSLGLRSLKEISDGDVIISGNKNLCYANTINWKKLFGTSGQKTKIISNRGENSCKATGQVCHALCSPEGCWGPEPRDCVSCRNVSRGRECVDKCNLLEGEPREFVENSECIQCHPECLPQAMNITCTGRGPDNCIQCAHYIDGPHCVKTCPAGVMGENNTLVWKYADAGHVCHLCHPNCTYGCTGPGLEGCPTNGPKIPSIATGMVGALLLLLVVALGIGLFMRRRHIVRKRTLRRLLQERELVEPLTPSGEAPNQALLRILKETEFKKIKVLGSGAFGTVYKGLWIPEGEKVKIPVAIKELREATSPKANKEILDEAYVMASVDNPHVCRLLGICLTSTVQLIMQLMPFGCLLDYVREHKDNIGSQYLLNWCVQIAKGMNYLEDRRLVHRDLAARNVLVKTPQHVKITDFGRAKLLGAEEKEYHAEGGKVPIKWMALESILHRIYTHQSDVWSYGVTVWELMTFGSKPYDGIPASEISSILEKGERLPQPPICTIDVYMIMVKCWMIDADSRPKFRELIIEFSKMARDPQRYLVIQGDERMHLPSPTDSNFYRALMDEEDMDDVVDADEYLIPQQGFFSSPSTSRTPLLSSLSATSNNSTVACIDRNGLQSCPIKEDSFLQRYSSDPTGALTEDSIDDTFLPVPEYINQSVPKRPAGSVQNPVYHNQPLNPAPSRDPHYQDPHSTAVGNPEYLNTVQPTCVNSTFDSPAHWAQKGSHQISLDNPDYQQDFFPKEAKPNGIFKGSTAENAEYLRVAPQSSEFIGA
Method in brief: as §1

[4] = molecular target: T4, EGFR Exon19Del (Homo sapiens, UniProt P00533, DEL746-750); assay: Inhibition of EGFR Exon19Del biochemical enzymatic activity (HTRF); details: EGFR Del19, 1 mM ATP, 1 h, room temperature, read-out: IC50 @Del19
T4 construct: purchased Carna Bio
Method in brief: as §1

[5] = molecular target: T5, EGFR Exon19Del/T790M (Homo sapiens, UniProt P00533, DEL746-750/T790M); assay: Inhibition of EGFR Exon19Del/T790M biochemical enzymatic activity (HTRF); details: EGFR Del19-T790M, 1 mM ATP, 1 h, room temperature, read-out: IC50 (nM) @Del19-T790M
T5 construct: purchased Carna Bio
T5 sequence (P00533 with tags, fused parts or gaps DEL746-750/T790M limits assumed): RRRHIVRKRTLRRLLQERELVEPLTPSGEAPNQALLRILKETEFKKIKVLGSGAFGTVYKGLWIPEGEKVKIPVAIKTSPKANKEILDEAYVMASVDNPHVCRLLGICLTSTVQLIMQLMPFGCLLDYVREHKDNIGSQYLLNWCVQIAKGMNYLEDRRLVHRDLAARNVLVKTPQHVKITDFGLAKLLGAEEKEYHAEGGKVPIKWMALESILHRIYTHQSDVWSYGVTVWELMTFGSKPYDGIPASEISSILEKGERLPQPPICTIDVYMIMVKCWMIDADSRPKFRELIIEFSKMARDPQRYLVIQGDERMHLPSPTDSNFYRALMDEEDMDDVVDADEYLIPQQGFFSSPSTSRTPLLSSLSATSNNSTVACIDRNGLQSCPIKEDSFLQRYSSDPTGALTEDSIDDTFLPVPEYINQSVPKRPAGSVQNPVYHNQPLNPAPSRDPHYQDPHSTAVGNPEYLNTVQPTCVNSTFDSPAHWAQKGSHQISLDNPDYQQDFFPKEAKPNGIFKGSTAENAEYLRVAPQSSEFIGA
Method in brief: as §1

[6] = molecular target: T6, EGFR[T790M/C797S/L858R] (Homo sapiens, UniProt P00533, C797S/L858R/T790M); assay: Inhibition of EGFR[T790M/C797S/L858R] biochemical enzymatic activity (HTRF); details: EGFR T790M-C797S-L858R, 1 mM ATP, 1 h, room temperature, read-out: IC50 (nM) @T790M- C797S - L858R
T6 construct: purchased Carna Bio
Method in brief: as §1

[7] = molecular target: T7, EGFR[T790M/C797S/d746-750] (Homo sapiens, UniProt P00533, C797S/DEL746-750/T790M); assay: Inhibition of EGFR[T790M/C797S/d746-750] biochemical enzymatic activity (HTRF); details: EGFR T790M-C797S-Del19, 1 mM ATP, 1 h, room temperature, read-out: IC50 (nM) @T790M - C797S - Del19
T7 construct: purchased Carna Bio
Method in brief: as §1

[8] = molecular target: T8, EGFR (d746-750 C797S) (Homo sapiens, UniProt P00533, C797S/DEL746-750); assay: Inhibition of EGFR (d746-750 C797S) biochemical enzymatic activity (HTRF); details: EGFR Del19-C797S, 1 mM ATP, 1 h, room temperature, read-out: IC50 (nM) @Del19-C797S
T8 construct: purchased signalchem
T8 sequence (P00533 with tags, fused parts or gaps DEL746-750/C797S limits assumed): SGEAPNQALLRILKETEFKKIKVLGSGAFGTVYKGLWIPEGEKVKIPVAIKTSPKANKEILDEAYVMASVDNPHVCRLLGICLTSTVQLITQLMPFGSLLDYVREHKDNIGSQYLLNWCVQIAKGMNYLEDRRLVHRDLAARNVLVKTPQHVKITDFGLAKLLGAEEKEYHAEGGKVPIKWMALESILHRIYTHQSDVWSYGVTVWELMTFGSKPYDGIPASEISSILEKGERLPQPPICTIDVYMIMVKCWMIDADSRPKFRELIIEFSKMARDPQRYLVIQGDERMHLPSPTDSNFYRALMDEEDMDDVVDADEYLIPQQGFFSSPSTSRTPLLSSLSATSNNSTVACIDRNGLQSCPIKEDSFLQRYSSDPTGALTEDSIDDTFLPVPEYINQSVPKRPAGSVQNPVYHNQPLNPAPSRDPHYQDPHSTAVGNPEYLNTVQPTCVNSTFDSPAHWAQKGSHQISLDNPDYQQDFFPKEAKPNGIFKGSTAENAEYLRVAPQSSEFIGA
Method in brief: as §1

[9] = molecular target: T9, EGFR (C797S L858R) (Homo sapiens, UniProt P00533, C797S/L858R); assay: Inhibition of EGFR (C797S L858R) biochemical enzymatic activity (HTRF); details: EGFR L858-C797S, 1 mM ATP, 1 h, room temperature, read-out: IC50 (nM) @L858-C797S
T9 construct: purchased signalchem
Method in brief: as §1

[10] = test system: Ba/F3 cells expressing EGFR mutations; assay: Cell proliferation assay, Ba/F3 cells expressing EGFR mutations (CellTiter-Glo, 72 hours); format: cell-based; details: CellTiter-Glo
Method in brief: (§2)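 Ba/F3 cells (5000/well) and PC-9 cells (500/well, RPMI1640 with 10% FBS) were plated overnight and then dosed with a compound concentration series. Viable cells were read at day 0 (G0) and after treatment (G3). GI50 came from curve fits of G0-corrected proliferation relative to DMSO.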

[11] = test system: PC-9; assay: Cell proliferation assay, PC-9 cells (CellTiter-Glo, 72 hours); format: cell-based; details: PC9 cells, CellTiter-Glo, read-out: PC9 GI50
Method in brief: as §2

[12] = test system: A-431; assay: Cell proliferation GI50, A-431 cells (Table 6); format: cell-based
[13] = Mus musculus, BaF3, 72 h, BaF3 cells, EGFR DEL19-C797S, read-out: DEL19-C797S/BaF3 GI50
[14] = Mus musculus, BaF3, 72 h, BaF3 cells, EGFR DEL19-T790-C797S, read-out: DEL19-T790-C797S/BaF3 GI50
[15] = Mus musculus, BaF3, 72 h, BaF3 cells, EGFR L858R, read-out: L858R/BaF3 GI50
[16] = Mus musculus, BaF3, 72 h, BaF3 cells, EGFR L858R-C797S, read-out: L858R-C797S/BaF3 GI50
[17] = Mus musculus, BaF3, 72 h, BaF3 cells, EGFR L858R-T790-C797S, read-out: L858R-T790-C797S/BaF3 GI50
[18] = Mus musculus, BaF3, 72 h, BaF3 cells, EGFR L858R-T790M, read-out: L858R-T790M/BaF3 GI50
[19] = Mus musculus, BaF3, 72 h, EGFR DEL19-T790M, read-out: DEL19-T790M GI50
[20] = Homo sapiens, A-431, A-431 cells
[21] = BaF3 cells, EGFR DEL19-C797S, read-out: DEL19-C797S/BaF3 GI50
[22] = BaF3 cells, EGFR DEL19-T790-C797S, read-out: DEL19-T790-C797S/BaF3 GI50
[23] = BaF3 cells, EGFR L858R, read-out: L858R/BaF3 GI50
[24] = BaF3 cells, EGFR L858R-C797S, read-out: L858R-C797S/BaF3 GI50
[25] = BaF3 cells, EGFR L858R-T790-C797S, read-out: L858R-T790-C797S/BaF3 GI50
[26] = BaF3 cells, EGFR L858R-T790M, read-out: L858R-T790M/BaF3 GI50
[27] = EGFR DEL19-T790M, read-out: DEL19-T790M GI50

T1 sequence (P00533 25-1210): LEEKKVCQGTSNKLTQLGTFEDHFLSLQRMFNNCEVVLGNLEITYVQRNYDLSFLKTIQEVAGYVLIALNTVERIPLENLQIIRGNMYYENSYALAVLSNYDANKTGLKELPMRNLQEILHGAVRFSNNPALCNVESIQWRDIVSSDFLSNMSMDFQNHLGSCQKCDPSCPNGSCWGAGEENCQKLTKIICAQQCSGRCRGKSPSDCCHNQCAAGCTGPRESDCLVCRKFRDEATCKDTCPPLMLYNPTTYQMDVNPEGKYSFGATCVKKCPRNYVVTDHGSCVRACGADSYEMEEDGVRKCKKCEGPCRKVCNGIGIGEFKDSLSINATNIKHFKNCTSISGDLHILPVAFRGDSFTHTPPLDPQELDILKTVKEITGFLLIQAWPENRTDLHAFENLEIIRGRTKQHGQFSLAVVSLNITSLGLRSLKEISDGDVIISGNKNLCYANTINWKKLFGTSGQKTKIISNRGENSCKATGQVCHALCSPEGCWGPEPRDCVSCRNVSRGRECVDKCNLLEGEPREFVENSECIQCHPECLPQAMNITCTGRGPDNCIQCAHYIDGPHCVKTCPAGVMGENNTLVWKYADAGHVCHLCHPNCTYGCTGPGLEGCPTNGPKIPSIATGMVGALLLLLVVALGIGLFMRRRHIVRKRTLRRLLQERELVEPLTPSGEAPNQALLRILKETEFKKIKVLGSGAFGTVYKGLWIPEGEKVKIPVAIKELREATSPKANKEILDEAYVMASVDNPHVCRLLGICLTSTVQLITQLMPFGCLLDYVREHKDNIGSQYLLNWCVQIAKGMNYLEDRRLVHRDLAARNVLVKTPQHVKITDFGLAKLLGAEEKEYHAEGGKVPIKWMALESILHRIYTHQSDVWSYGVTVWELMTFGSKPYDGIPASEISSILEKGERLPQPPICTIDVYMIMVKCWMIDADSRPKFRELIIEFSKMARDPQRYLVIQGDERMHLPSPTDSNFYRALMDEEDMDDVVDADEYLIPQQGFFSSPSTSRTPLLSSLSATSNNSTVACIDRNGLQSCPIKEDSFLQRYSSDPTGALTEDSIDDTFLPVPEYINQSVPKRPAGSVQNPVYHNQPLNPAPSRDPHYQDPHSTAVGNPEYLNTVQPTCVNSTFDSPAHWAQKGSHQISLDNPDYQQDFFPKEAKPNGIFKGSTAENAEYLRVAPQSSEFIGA

| SMILES | IC50 [1] [nM] | IC50 [2] [nM] | IC50 [3] [nM] | IC50 [4] [nM] | IC50 [5] [nM] | IC50 [6] [nM] | IC50 [7] [nM] | IC50 [8] [nM] | IC50 [9] [nM] | GI50 [10, 13] [nM] | GI50 [10, 14] [nM] | GI50 [12, 20] [nM] | GI50 [10, 21] [nM] | GI50 [10, 22] [nM] | GI50 [10, 23] [nM] | GI50 [10, 24] [nM] | GI50 [10, 25] [nM] | GI50 [10, 26] [nM] | GI50 [10, 27] [nM] | GI50 [11] [nM] | further results |
| --- | --- | --- | --- | --- | --- | --- | --- | --- | --- | --- | --- | --- | --- | --- | --- | --- | --- | --- | --- | --- | --- |
| Cn1ncc2c1OCCN1CC3CCC(CC3)(C1)n1c(nc3ccc(N4CCOCC4)cc31)NC(=O)c1cc-2c(=O)n(C)c1 [Example A74, 15,21-Dimethyl-5-(morpholin-4-yl)-23-oxa-2,9,11,15,20,21,26-heptaazaheptacyclo[26.2.2.1^{1,26}.1^{13,17}.0^{2,10}.0^{3,8}.0^{18,22}]tetratriaconta-3,5,7,9,13,17(34),18(22),19-octaene-12,16-dione] | > 5000 | 707 | 81 | 24 | 8.6 | 367 | 6.8 | 23 | 573 | 4.5 | 40 | 2370 | – | – | – | – | – | – | – | – | GI50 [10, 15]: 41 nM; GI50 [10, 16]: 41 nM; GI50 [10, 17]: 60 nM; GI50 [10, 18]: 104 nM; GI50 [10, 19]: 37 nM; GI50 ([11]; Homo sapiens, PC-9, 72 h): 84 nM |
| CN1CC2CC1CN2c1ccc2nc3n(c2c1)C12CCC(CN(CCOc4c(cnn4C)-c4cc(cn(C)c4=O)C(=O)N3)C1)C2 (single isomer, unassigned) [Example A105B] | 110 | 7.3 | 1.8 | 1.6 | 2.2 | 1.5 | 1.7 | 1 | 3.8 | – | – | 354 | 0.76 | 3.5 | 7.9 | 3.8 | 7 | 15 | 4.9 | 13 | – |
| CN1CCN(c2ccc3nc4n(c3c2)CC2(CCCOc3c(cnn3C)-c3cc(cn(C)c3=O)C(=O)N4)CC2)CC1 [Example A18, 5′,26′-dimethyl-16′-(4-methylpiperazin-1-yl)-7′-oxa-4′,5′,13′,20′,22′,26′-hexaazaspiro[cyclopropane-1,11′-pentacyclo[22.3.1.0^{2,6}.0^{13,21}.0^{14,19}]octacosan]-1′(28′),2′(6′),3′,14′,16′,18′,20′,24′-octaene-23′,27′-dione] | > 5000 | 1370 | 1140 | 54 | 41 | 1720 | 44 | 91 | 929 | 52.9 | 246 | 377 | – | – | – | – | – | – | – | – | GI50 [10, 15]: 194 nM; GI50 [10, 16]: 169 nM; GI50 [10, 17]: 309 nM; GI50 [10, 18]: 249 nM; GI50 [10, 19]: 187 nM; GI50 ([11]; Homo sapiens, PC-9, 72 h): 565 nM |
| Cn1ncc2c1OCCN1CC3CCC(C3)(C1)n1c(nc3ccccc31)NC(=O)c1cc-2c(=O)n(C)c1 (stereo not drawn) [Example A61B, 15,21-Dimethyl-23-oxa-2,9,11,15,20,21,26-heptaazaheptacyclo[24.4.1.1^{1,28}.1^{13,17}.0^{2,10}.0^{3,8}.0^{18,22}]tritriaconta-3,5,7,9,13,17(33),18(22),19-octaene-12,16-dione] | 2420 | 224 | 8 | 6.1 | 1.8 | 17 | 1.7 | 2.5 | 146 | 1.7 | 11 | 1790 | – | – | – | – | – | – | – | – | GI50 [10, 15]: 21 nM; GI50 [10, 16]: 22 nM; GI50 [10, 17]: 16 nM; GI50 [10, 18]: 55 nM; GI50 [10, 19]: 9.9 nM; GI50 ([11]; Homo sapiens, PC-9, 72 h): 29 nM |
| CN1CCC2(CC1)CN(c1ccc3nc4n(c3c1)C13CCC(CN(CCOc5c(cnn5C)-c5cc(cn(C)c5=O)C(=O)N4)C1)C3)C2 (single isomer, unassigned) [Example A77B] | 7.3 | 3.5 | 3.8 | 2.9 | 3.8 | 3.4 | 3.6 | 2.1 | 3.7 | – | – | 310 | 0.72 | 0.91 | 0.89 | 1.4 | 1.3 | 2.4 | 0.85 | 2.1 | – |
| CN(C)C1CCN(c2ccc3nc4n(c3c2)C23CCC(CN(CCOc5c(cnn5C)-c5cc(cn(C)c5=O)C(=O)N4)C2)C3)CC1(F)F (single isomer, unassigned) [Example A97A] | > 5000 | 3030 | > 5000 | 1190 | > 5000 | > 5000 | > 5000 | 850 | 3950 | – | – | – | 102 | 527 | 129 | 325 | 124 | 1000 | 459 | 763 | GI50 ([12]; A-431 cells): 5790 nM |
| CN1CCN(C2CCN(c3ccc4nc5n(c4c3)C34CCC(CN(CCOc6c(cnn6C)-c6cc(cn(C)c6=O)C(=O)N5)C3)C4)CC2)CC1 (single isomer, unassigned) [Example A106A] | > 5000 | 1750 | > 5000 | 594 | > 5000 | > 5000 | 2820 | 446 | > 5000 | – | – | – | 113 | 322 | 268 | 143 | 316 | 392 | 355 | 418 | GI50 ([12]; A-431 cells): 2500 nM |
